Assay: human liver microsome (HLM) metabolic stability assay
Type: in vitro ADME
Conditions: human liver microsomes; % hepatic blood flow calculated from t1/2
Method in brief: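 Compounds at 1 uM incubated with human liver microsomes plus NADPH at 37° C., sampled at 0, 5, 15, 30 and 60 min into cold acetonitrile and quantified by LC/MS/MS. t½ from the slope of ln % remaining vs time; CLint, CLh and % Qh derived from it (n=1).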

| Compound | HLM (% Qh) |
| --- | --- |
| Cc1cccc(-c2cccc(-n3ncc(C(=O)O)c3OC(C)C)n2)c1OCc1ccc2c(c1)CCN(C1CCOCC1)C2 [Compound 1, 5-isopropoxy-1-(6-{3-methyl-2-[2-(tetrahydro-pyran-4-yl)-1,2,3,4-tetrahydro-isoquinolin-6-ylmethoxy]-phenyl}-pyridin-2-yl)-1H-pyrazole-4-carboxylic acid] | <24 |
| Cc1cccc(-c2cccc(-n3ncc(C(=O)O)c3OC(C)C)n2)c1OCc1ccc2c(c1)CCN(C1CCC(F)(F)CC1)C2 [Compound 2] | <24 |
| COc1c(C(=O)O)cnn1-c1cccc(-c2cccc(C)c2OCc2ccc3c(c2)CCN(C2CCOCC2)C3)n1 [Compound 3] | <24 |
| Cc1cccc(-c2cccc(-n3ncc(C(=O)O)c3OC(C)C)n2)c1OCc1ccc2c(c1)CCN(CC1CC(F)(F)C1)C2 [Compound 4, 1-(6-{2-[2-(3,3-difluoro-cyclobutylmethyl)-1,2,3,4-tetrahydro-isoquinolin-6-ylmethoxy]-3-methyl-phenyl}-pyridin-2-yl)-5-isopropoxy-1H-pyrazole-4-carboxylic acid] | <24 |
| COc1c(C(=O)O)cnn1-c1cccc(-c2cccc(C)c2OCc2ccc3c(c2)CCN(C2CCC(F)(F)CC2)C3)n1 [Compound 5] | <24 |
| CCOc1c(C(=O)O)cnn1-c1cccc(-c2cccc(C)c2OCc2ccc3c(c2)CCN(C2COC2)C3)n1 [Compound 6] | <24 |
| COc1c(C(=O)O)cnn1-c1cccc(-c2cccc(C)c2OCc2ccc3c(c2C)CCN(CC(C)(C)C)C3)n1 [Compound 30] | <24 |
| COc1c(C(=O)O)cnn1-c1cccc(-c2cccc(C)c2OCc2ccc3c(c2C)CCN(C2CCOC2)C3)n1 (stereo not shown) [Compound 31] | <24 |
| CCOc1c(C(=O)O)cnn1-c1cccc(-c2cccc(C)c2OCc2ccc3c(c2)CCN(C(C)C)C3)n1 [Compound 32] | <24 |
| COc1c(C(=O)O)cnn1-c1cccc(-c2cccc(C)c2OCc2ccc3c(c2)CCN(CC(C)(C)O)C3)n1 [Compound 33, 1-(6-{2-[2-(2-hydroxy-2-methyl-propyl)-1,2,3,4-tetrahydro-isoquinolin-6-ylmethoxy]-3-methyl-phenyl}-pyridin-2-yl)-5-methoxy-1H-pyrazole-4-carboxylic acid] | <24 |
| CCOc1c(C(=O)O)cnn1-c1cccc(-c2cccc(C)c2OCc2ccc3c(c2)CCN(CC2(C)COC2)C3)n1 [Compound 34] | <24 |
| CCOc1c(C(=O)O)cnn1-c1cccc(-c2cccc(C)c2OCc2ccc3c(c2)CCN(C2CCOC2)C3)n1 (stereo not shown) [Compound 35] | <24 |
| CCOc1c(C(=O)O)cnn1-c1cccc(-c2cccc(C)c2OCc2ccc3c(c2)CCN(C2CCCOC2)C3)n1 (stereo not shown) [Compound 36] | <24 |
| Cc1cccc(-c2cccc(-n3ncc(C(=O)O)c3OC(C)C)n2)c1OCc1ccc2c(c1)CCN(C(C)C)C2 [Compound 37] | <24 |
| COCC(C)N1CCc2cc(COc3c(C)cccc3-c3cccc(-n4ncc(C(=O)O)c4OC(C)C)n3)ccc2C1 (stereo not shown) [Compound 38] | <24 |
| Cc1cccc(-c2cccc(-n3ncc(C(=O)O)c3OC(C)C)n2)c1OCc1ccc2c(c1)CCN(C1COC1)C2 [Compound 39] | <24 |
| Cc1cccc(-c2cccc(-n3ncc(C(=O)O)c3OC(C)C)n2)c1OCc1ccc2c(c1)CCN(CC1(C)COC1)C2 [Compound 40] | <24 |
| Cc1cccc(-c2cccc(-n3ncc(C(=O)O)c3OC(C)C)n2)c1OCc1ccc2c(c1)CCN(C1CCOC1)C2 (stereo not shown) [Compound 41] | <24 |
| Cc1cccc(-c2cccc(-n3ncc(C(=O)O)c3OC(C)C)n2)c1OCc1ccc2c(c1)CCN(C1CCCOC1)C2 (stereo not shown) [Compound 42] | <24 |
| Cc1cccc(-c2cccc(-n3ncc(C(=O)O)c3OC(C)C)n2)c1OCc1ccc2c(c1C)CCN(C(C)C)C2 [Compound 43] | 26 |

| Compound | HLM (% Qh) |
| --- | --- |
| COCC(C)N1CCc2c(ccc(COc3c(C)cccc3-c3cccc(-n4ncc(C(=O)O)c4OC(C)C)n3)c2C)C1 (stereo not shown) [Compound 44] | <24 |
| Cc1cccc(-c2cccc(-n3ncc(C(=O)O)c3OC(C)C)n2)c1OCc1ccc2c(c1C)CCN(C1COC1)C2 [Compound 45] | <24 |
| Cc1cccc(-c2cccc(-n3ncc(C(=O)O)c3OC(C)C)n2)c1OCc1ccc2c(c1C)CCN(CC1(C)COC1)C2 [Compound 46] | <24 |
| CCOc1c(C(=O)O)cnn1-c1cccc(-c2cccc(C)c2OCc2ccc3c(c2)CCN(C(C)CF)C3)n1 (stereo not shown) [Compound 49, 5-ethoxy-1-(6-{2-[2-(2-fluoro-1-methyl-ethyl)-1,2,3,4-tetrahydro-isoquinolin-6-ylmethoxy]-3-methyl-phenyl}-pyridin-2-yl)-1H-pyrazole-4-carboxylic acid] | 48 |
| CCOc1c(C(=O)O)cnn1-c1cccc(-c2cccc(Cl)c2OCc2ccc3c(c2)CCNC3)n1 [Compound 50] | 40 |
| CCOc1c(C(=O)O)cnn1-c1cccc(-c2cccc(Cl)c2OCc2ccc3c(c2)CCN(C2COC2)C3)n1 [Compound 51] | <24 |
| COc1c(C(=O)O)cnn1-c1cccc(-c2cc(F)cc(F)c2OCc2ccc3c(c2)CCN(C2COC2)C3)n1 [Compound 52] | <24 |
| COc1c(C(=O)O)cnn1-c1cccc(-c2cc(F)cc(F)c2OCc2ccc3c(c2)CCN(C2CCOCC2)C3)n1 [Compound 53] | <24 |
| CCOc1c(C(=O)O)cnn1-c1cccc(-c2cccc(Cl)c2OCc2ccc3c(c2)CCN(C2CCOCC2)C3)n1 [Compound 54] | <24 |
| CCOc1c(C(=O)O)cnn1-c1cccc(-c2cccc(Cl)c2OCc2ccc3c(c2)CCN(C2CCOC2)C3)n1 (stereo not shown) [Compound 55] | <24 |
| CCOc1c(C(=O)O)cnn1-c1cccc(-c2cccc(Cl)c2OCc2ccc3c(c2)CCN(C(C)CO)C3)n1 (stereo not shown) [Compound 56] | <24 |
| CCOc1c(C(=O)O)cnn1-c1cccc(-c2cccc(Cl)c2OCc2ccc3c(c2)CCN(C2CCC(F)(F)CC2)C3)n1 [Compound 57] | <24 |
| CCOc1c(C(=O)O)cnn1-c1cccc(-c2cccc(Cl)c2OCc2ccc3c(c2)CCN(CCOC)C3)n1 [Compound 58] | <24 |
| COc1c(C(=O)O)cnn1-c1cccc(-c2cccc(C)c2OCc2ccc3c(c2)CCN(C2CCOC(C)(C)C2)C3)n1 (stereo not shown) [Compound 61] | <24 |
| COc1c(C(=O)O)cnn1-c1cccc(-c2cccc(C)c2OCc2ccc3c(c2)CCN(C2CC(C)OC(C)C2)C3)n1 (stereo not shown) [Compound 62] | <24 |
| COc1c(C(=O)O)cnn1-c1cccc(-c2cccc(F)c2OCc2ccc3c(c2)CCN(C2CCOCC2)C3)n1 [Compound 63] | <24 |
| CCOc1c(C(=O)O)cnn1-c1cccc(-c2cccc(C)c2OCc2ccc3c(c2)CCN(C2CCOCC2C)C3)n1 (stereo not shown) [Compound 64] | <24 |
| CCOc1c(C(=O)O)cnn1-c1cccc(-c2cccc(C)c2OCc2ccc3c(c2)CCN(C2CC(C)OC(C)C2)C3)n1 (stereo not shown) [Compound 65] | <24 |
| CCOc1c(C(=O)O)cnn1-c1cccc(-c2cccc(C)c2OCc2ccc3c(c2)CCN(C2CCOC(C)(C)C2)C3)n1 (stereo not shown) [Compound 66] | <24 |
| CCOc1c(C(=O)O)cnn1-c1cccc(-c2cccc(C)c2OCc2ccc3c(c2)CCN(C2CC(C)(C)OC(C)(C)C2)C3)n1 [Compound 67] | <24 |
